{"source": "patent US20240043818A1", "about": "“Engineered Cells for Increased Collagen Production” (Northeastern University, priority 2020, published 2024)", "molecules": {"B1": {"name": "IL-4: Interleukin, glycoprotein associated with immune response (protein, UniProt P05112 25-153, looked up)", "Interleukin-4": "HKCDITLQEIIKTLNSLTEQKTLCTELTVTDIFAASKNTTEKETFCRAATVLRQFYSHHEKDTRCLGATAQQFHRHKQLIRFLKRLDRNLWGLAGLNSCPVKEANQSTLENFLERLKTIMREKYSKCSS"}, "B2": {"name": "IL-10: Interleukin, glycoprotein associated with immune response (protein, UniProt P22301 19-178, looked up)", "Interleukin-10": "SPGQGTQSENSCTHFPGNLPNMLRDLRDAFSRVKTFFQMKDQLDNLLLKESLLEDFKGYLGCQALSEMIQFYLEEVMPQAENQDPDIKAHVNSLGENLKTLRLRLRRCHRFLPCENKSKAVEQVKNAFNKLQEKGIYKAMSEFDIFINYIEAYMTMKIRN"}}, "key": {"human dermal fibroblasts": {"test_system": "human dermal fibroblasts", "conditions": "cited from earlier work"}, "rat liver M cells": {"test_system": "rat liver M cells", "conditions": "concentration in media as low as 1 ng/ml; cited from earlier work"}, "[1]": {"test_system": "myofibroblasts and fibroblasts", "conditions": "50 mM; cited from earlier work"}, "[2]": {"test_system": "cell types including bovine, mouse, and human", "conditions": "cited from earlier work"}, "corneal fibroblasts": {"test_system": "corneal fibroblasts", "experiment": "Media additive screening (Phase 1) and full factorial DOE (Phase 2), collagen production by SirCol", "format": "cell-based", "conditions": "Phase 1 screening", "method": "Based on a weighted scoring (Table 13), the seven best additives were selected and were added to the fibroblast media separately in a Phase 1 screening study using concentrations presented in Table 14. […] For this study a three-level design was chosen in order to determine a maxima. This phase of the experiment determined which additives have a statistically significant effect on collagen production and what concentration of each additive has the highest positive impact.\nThe seven additives also allowed for minimizing the number of plates and maximizing the number of used wells. […] In phase 1 of testing 7 media additives were tested at 3 concentrations with a sample size of 4 for each condition. Additives and concentrations used were determined by the prior research described above. Collagen amount per well was quantified, but cell counts were not performed. Collagen produced per cell was estimated based on the number of cells expected per well. Some groups fell below the SirCol standard curve range of 1-50 ug. These values were represented as 1.00 ug/100 uL and were assigned the lowest rating for efficacy in the resulting trade study.\nFor the three additives that advanced the highest ranking of each additive was used as the DOE centerpoint. Due to a lack of available stock, ACE low was substituted for ACE medium.\nIn phase 2 the top performing media additives were fed into a full factorial DOE. The concentrations used were determined by a variety of factors including a trade study, remaining laboratory supplies, and finally the lower cost associated with a lower concentration in a near-tie situation. A near-tie situation was defined by the group as concentrations of the same chemical that scored within 1% total score. […] For acetaldehyde, due to a stock issue the low concentration at 0.2 mM was chosen. For the 100% concentration limit needed to complete construction of the full-factorial DOE plan, each of these values was doubled, which corresponds to the medium conditions from phase 1."}, "human chondrocytes": {"test_system": "human chondrocytes", "conditions": "cited from earlier work"}, "[3]": {"test_system": "baboon liver myofibroblasts", "conditions": "cited from earlier work"}, "collagen production": {"test_system": "collagen production", "conditions": "cited from earlier work"}, "human lung fibroblasts": {"test_system": "human lung fibroblasts", "conditions": "100 ng/mL; cited from earlier work"}, "fibroblast migration": {"test_system": "fibroblast migration", "conditions": "dose-dependent, 0.25 and 0.5 mM; cited from earlier work"}, "any cell type": {"test_system": "any cell type", "conditions": "cited from earlier work"}, "[4]": {"conditions": "added to the culture media in concentrations up to 300 μM"}}, "data": [{"molecule": "O=C(O)[C@@H]1CCCN1", "note": "[Proline]", "values": [{"measurement": "maximum increase in collagen production compared to the control value", "setting": "human dermal fibroblasts; 5-10 mM in media", "result": 200, "unit": "%"}]}, {"molecule": "TGF-β", "values": [{"measurement": "concentration for maximum efficacy", "setting": "human dermal fibroblasts", "result": 12.5, "unit": "ng/mL"}]}, {"molecule": "TGF-β1: Transforming Growth Factor Beta 1", "values": [{"measurement": "collagen production versus control", "setting": "rat liver M cells", "result": "unquantified increase"}]}, {"molecule": "CCO", "note": "[ethanol]", "values": [{"measurement": "effect on the level of collagen production", "setting": "[1]", "result": "no direct effect"}]}, {"molecule": "O=C1O[C@H]([C@@H](O)CO)C(O)=C1O", "note": "[ASC, Ascorbic acid]", "values": [{"measurement": "production of collagen", "setting": "[2]", "result": "beneficial"}, {"measurement": "collagen production versus control, single additive", "setting": "corneal fibroblasts", "result": "higher collagen production than the control"}]}, {"molecule": "IL-1p: Interleukin type 1p as printed, glycoprotein associated with immune response", "values": [{"measurement": "lowest concentration needed for an observable, positive effect on collagen production", "setting": "human chondrocytes", "result": 2.5, "unit": "µM"}]}, {"molecule": "CC=O", "note": "[ACE, Acetaldehyde]", "values": [{"measurement": "levels of collagen produced", "setting": "[3]; [4]", "result": "increase the levels of collagen"}, {"measurement": "collagen production versus control, single additive", "setting": "corneal fibroblasts", "result": "higher collagen production than the control"}, {"measurement": "levels of collagen produced", "setting": "human dermal fibroblasts; [4]", "result": "increase the levels of collagen"}]}, {"molecule": "Cn1c(=O)c2c(ncn2C)n(C)c1=O", "note": "[caffeine]", "values": [{"measurement": "effect on collagen production", "setting": "collagen production; concentrations in media as little as 1-5 mM", "result": "negative effect"}]}, {"molecule": "CC(O)C(=O)O", "note": "(stereo not shown) [Lactate]", "values": [{"measurement": "collagen production", "setting": "[3]; 5 mM added to media", "result": "statistically significant increase"}, {"measurement": "collagen production", "setting": "human dermal fibroblasts; 40 mM", "result": "decrease collagen production"}]}, {"molecule": "IGF-1: Insulin-like Growth Factor 1", "values": [{"measurement": "correlation between level in media and production of collagen", "setting": "human dermal fibroblasts; manipulation of rat serum applied to media", "result": "positive correlation"}, {"measurement": "maximum increase of collagen production from control", "setting": "human lung fibroblasts", "result": 300, "unit": "%"}]}, {"molecule": "NC(=O)CC[C@H](N)C(=O)O", "note": "[glutamine]", "values": [{"measurement": "maximum benefit for the production of collagen, % of the control", "setting": "human dermal fibroblasts; at 250 μM", "result": "~300", "unit": "%"}]}, {"molecule": "O=C(O)C1CCC=N1", "note": "(stereo not shown) [pyrroline-5-carboxylate]", "values": [{"measurement": "optimal concentration for collagen production", "setting": "human dermal fibroblasts", "result": 1, "unit": "mM"}, {"measurement": "time at which the effect on collagen production can be seen", "setting": "human dermal fibroblasts", "result": 6, "unit": "h"}, {"measurement": "maximum increase of collagen production, % of the control value", "setting": "human dermal fibroblasts; optimal concentration of 1 mM", "result": 260, "unit": "%"}]}, {"molecule": "N[C@@H](CCC(=O)O)C(=O)O", "note": "[Glutamate]", "values": [{"measurement": "increase of collagen production from the control", "setting": "human dermal fibroblasts; glutamate-supplemented media", "result": 400, "unit": "%"}]}, {"molecule": "N#CCCN", "note": "[BAPN, β-aminopropionitrile]", "values": [{"measurement": "collagen production versus control, single additive", "setting": "corneal fibroblasts", "result": "higher collagen production than the control"}, {"measurement": "fibroblast migration", "setting": "fibroblast migration", "result": "inhibited fibroblast migration"}, {"measurement": "adverse effects on cell viability, collagen synthesis, or non collagen protein synthesis", "setting": "any cell type", "result": "No research with any cell type has shown adverse effects"}]}, {"molecule": "B1", "values": [{"measurement": "maximum positive effect on collagen production, increase from control", "setting": "collagen production", "result": 250, "unit": "%"}]}, {"molecule": "B2", "values": [{"measurement": "effect on level of collagen production", "setting": "collagen production", "result": "reduce the level of collagen production"}]}]}
